Experimental data published in PubChem BioAssay AID179 (DTP/NCI, 2004).
Calls of active or inactive are those of the source.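 How the source made its calls: active means compounds giving half or more protection of infected cells from virus-caused growth loss, again on retest; inactive means the rest.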

Test system: CEM cells HIV-1 protection, formazan growth assay
Assay: NCI AIDS Antiviral Assay
Details: for IC50: measured here: growth of uninfected CEM cells
Summary of the method: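 CEM (human) cells, HIV-1 infected vs uninfected, 5-point dosing, formazan growth read-out. Retest threshold 50% protection.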

SMILES | EC50 [µM] | IC50 [µM] | outcome
COc1ccc(N2C=Nn3c(nc4sc5c(c4c3=O)CCCC5)C2)cc1 | > 50.1 | > 50.1 | 
Cn1cc2c(n1)c(N/N=C/c1ccccc1)nn1nnnc21 | > 89.1 | > 89.1 | 
Cn1cc(NC(=O)Nc2cc(C(=O)Nc3cc(C(=O)Nc4ccc5cc(S(=O)(=O)O)cc(S(=O)(=O)O)c5c4)n(C)n3)n(C)c2)cc1C(=O)Nc1cc(C(=O)Nc2ccc3cc(S(=O)(=O)O)cc(S(=O)(=O)O)c3c2)n(C)n1 | 5.5 | > 100 | 
CN(C)c1n2c3ccc([N+](=O)[O-])cc3n3c(N(C)C)[n+]4ccccc4c3c2c2cccc[n+]12 | > 200 | 89.1 | 
CC[C@]1(Cc2ccc(OC)c(OC)c2)C2CC(C(=O)OC)ON2O[C@H](OCc2ccccc2)[C@@H]1OC(C)=O (stereo partly drawn) | > 200 | 102 | 
COc1c[c]([Hg][O]C(C)=O)c(OC)c(NC(=O)CC(C)=O)[c]1[Hg][O]C(C)=O | > 0.724 | > 0.724 | 
C/C(=N/NC(=S)N1CC2CCC(CC2)C1)c1cnccn1 | > 2.24 | 0.049 | 
COc1cc(OC)c(/C=C\c2nccc3ccccc23)c(OC)c1 | > 200 | 13.8 | 
CC(C)OP(=O)(OC(C)C)/C(=N/N)NNc1ccc([N+](=O)[O-])cc1 | > 138 | 83.2 | 
N=C1/C(=C/c2ccc(F)cc2)C(=O)N=C2SC=NN12 | > 200 | > 200 | 
CCOC(=O)c1c(C)nc2c3ccccc3c(C#N)c(C)n12 | > 100 | > 100 | 
CN1C(=O)C(O)(C2=C3OCOC3=CC(=O)C2=O)c2ccccc21 (stereo not drawn) | > 200 | 32.4 | 
Nc1ccc(CCCCc2ccc(S(=O)(=O)F)cc2Cl)c(Cl)c1 | > 200 | 21.9 | 
C[N+](C)(C)CC1CCCC/C1=N\O (stereo not drawn) | > 794 | > 794 | 
C=C(C(=C)P(=S)(C(C)C)C(C)C)P(=S)(C(C)C)C(C)C | > 74.1 | > 74.1 | 
CCCCCCCCCCCCCCCC[N+]1(C)CC2CCCCC2C1 (stereo not drawn) | > 2 | 0.55 | 
CC(C)OC(=O)OCSc1ccccc1N=Cc1cccc([N+](=O)[O-])c1 | > 200 | 38 | 
O=c1c2ccccc2oc2nc3cc(Cl)ccc3n12 | > 200 | > 200 | 
S=C1Nc2cnc3ccccc3c2SC1c1ccccc1 (stereo not drawn) | > 200 | 56.2 | 
O=C(Nc1nc(C23CC4CC(CC(C4)C2)C3)cs1)c1cc2ccc(O)cc2oc1=O | > 200 | 7.41 | 
Cc1ccc(C2C(Cl)C(=O)N2NC(=O)c2ccc(N)cc2)cc1 (stereo not drawn) | > 200 | 13.5 | 

SMILES | EC50 [µM] | IC50 [µM] | outcome
COP(=O)(OC)C(Cc1c[nH]c2ccccc12)NC(=O)OCc1ccccc1 (stereo not drawn) | > 200 | > 200 | 
CC(NC(=O)C(C)C(=O)NCc1ccc(C(F)(F)F)cc1)C(N)=O (stereo not drawn) | > 200 | 115 | 
CCO/C=N\C1=C(C#N)SC2=N/C(=C\c3ccco3)C(=O)N21 |  |  | inactive
CCn1c(SCC(=O)NNC(=S)Nc2ccc(Cl)cc2)nc2ccccc2c1=O | > 200 | 95.5 | 
Clc1ccc2nncc(N3CC3)c2c1 |  |  | inactive
O=C1OC(=O)C2C1C(c1ccccc1[N+](=O)[O-])C=C(c1ccco1)N2c1ccncc1 (stereo not drawn) | > 20 | 2.51 | 
O=[N+]([O-])c1ccc([I+]c2ccccc2)cc1 | > 200 | 2.57 | 
CC(C)(C)c1cc(-c2ccc(-c3cc(C(C)(C)C)c(O)c(C(C)(C)C)c3)cc2)cc(C(C)(C)C)c1O | > 100 | > 100 | 
O=C(CCN1CCCCC1)N1CCc2c([nH]c3ccccc23)C1c1cccnc1 (stereo not drawn) | > 13.5 | > 13.5 | 
COC(=O)c1cc(C)ccc1C1CN=NC12Cc1cccc(C)c1C2=O (stereo not drawn) | > 200 | 26.9 | 
CCN(CC)CSc1nc2ccccc2s1 |  |  | inactive
Cn1c(=O)c2[nH]c(/N=N\n3ccc4ccccc43)nc2n(C)c1=O | > 200 | 191 | 
COC(=O)C1=CO[C@@H](C)[C@H]2CN3CC[C@]4(C(=O)Nc5ccccc54)[C@@H]3C[C@H]12 | > 200 | > 200 | 
N#Cc1nc(Nc2ccc([N+](=O)[O-])cc2)sc1N | > 38 | 19.1 | 
CCNCCNCC.[O-][Cl+3]([O-])([O-])[O-].[Pd+2].c1ccc(-c2ccccn2)nc1 | > 200 | 30.9 | 
COc1ccc2c(c1O)C1=CC(=O)CC[C@]13CCN(C)[C@H]3C2 | > 832 | 661 | 
O=C(O)C1=C(Cl)c2ccccc2S1(=O)=O |  |  | inactive
c1c[nH]c(-c2ccc(-c3ccc[nH]3)c3nsnc23)c1 | > 200 | > 200 | 
COCC1OC(N2C(=O)NC(=O)[C@@H]3C=C4CCCCC4=C[C@@H]32)C(OC)C1OC (stereo partly drawn) | > 200 | 105 | 
C/C(=N/Nc1ccc([N+](=O)[O-])cc1[N+](=O)[O-])c1ccccc1 | > 3.47 | > 3.47 | 
Cn1c(=O)cc(CC#N)c2ccccc21 | > 200 | > 200 | 

SMILES | EC50 [µM] | IC50 [µM] | outcome
Cc1ccc(S(=O)(=O)N(CCNC(=O)c2cccc(O)c2O)c2cc3c4c(c2)Oc2cccc5c2C4(C)c2c(cccc2O3)O5)cc1 | > 200 | 10.7 | 
BrC1CCCCCC(Br)C12OCCO2 (stereo not drawn) | > 57.5 | > 57.5 | 
N/C(=N/O)c1nsnc1/C(N)=N\O | > 200 | > 200 | 
CC1(C)CC(=O)C(CC2C(=O)CCCC2=O)C(=O)C1 | > 955 | 891 | 
COC1=CC(=O)C2C(C1=O)C(c1ccc(OC)c(OC)c1)[C@H]2C (stereo partly drawn) | > 12 | > 12 | 
COC(=O)C(N)C(C)c1c[nH]c2ccccc12 (stereo not drawn) | > 200 | > 200 | 
CCOC(=O)CCCN(c1sc(C)c(-c2ccccc2)c1C(=O)OCC)S(=O)(=O)c1ccc(C)cc1 | > 200 | 3.98 | 
CN(C)C(=S)SSC(=S)N(C)C.[Zn+2] | > 200 | 0.117 | 
CC1OC(CC(=O)O)CC2=C1C(=O)c1c(O)cccc1C2=O (stereo not drawn) | > 120 | 0.0447 | 
O=c1cc(NCCCCCO)[nH]c(=O)[nH]1 | > 200 | > 200 | 
NC(N)=NS(=O)(=O)c1ccc(NNc2c3ccccc3nc3c(C(=O)Nc4ccc(S(N)(=O)=O)cc4)cccc23)cc1 | > 200 | 10.2 | 
COc1c(-c2cc(C)c(Cl)c(=O)[nH]2)c(O)c(OC)c2occc12 | > 200 | 110 | 
O=S(=O)(O)c1cc(Cl)c(O)c2ncc(Cl)cc12 | > 200 | 42.7 | 
C/C(=N/NC(=S)N1CCCCC1)c1cccc(/C(C)=N\NC(=S)N2CCCCC2)n1 | > 200 | 13.2 | 
Cc1cc(N(CCC#N)CCC#N)ccc1/C=C1N=C(/C=C/c2ccccc2)N(c2ccc(S(N)(=O)=O)cc2)C\1=O |  |  | inactive
CC1=NS(=O)(=O)c2ccccc2N1 | > 1260 | > 1260 | 
Cc1cn([C@H]2C[C@](C)(CO)N(C)O2)c(=O)[nH]c1=O | > 200 | > 200 | 
CC(=O)SC(C[N+](=O)[O-])c1ccc2c(c1)OCO2 (stereo not drawn) | > 200 | 3.98 | 
O=C(C/C(=N/O)C(=O)NC1=C(Cl)C(=O)c2ccccc2C1=O)CC(c1ccccc1)c1c(O)c2ccccc2oc1=O (stereo not drawn) | > 12.3 | 6.61 | 
CC(=O)O[C@H]1C=CC23OC(=O)[C@]1(C)[C@H]2[C@H](C(=O)O)C12CC(=O)[C@@](CO)(CC[C@H]13)C2 |  |  | inactive
